Reference: patent publication US12121514B2, “Nonselective metabotropic glutamate receptor activators for treatment of attention deficit disorder and 22Q syndrome” (THE CHILDREN'S HOSPITAL OF PHILADELPHIA, priority 2015, dated 2024)

Legend:
[1] = test system: adolescent subjects with ADHD and at least one genetic alteration in an mGluR network gene; experiment: Actigraphy, Phase Ib trial of NFC-1; type: in vivo, human
From the text: Actigraphy is non-invasive monitoring of human rest/activity cycles, using an actigraph worn by the patient to document body movements. Actigraphs can be worn during school, for example, to measure activity levels. Actigraphy analysis can measure changes in sleep and hyperactivity that may be seen with treatment for ADHD.
All efficacy assessments, except actigraphy, were made at study enrollment (“enrollment baseline”) and again, including actigraphy, once-per-week for the placebo week (“week 1” or “placebo baseline”) and at each of the 4 weeks of NFC-1 treatment. These efficacy measures include items 1-18 of the Vanderbilt scale assessing symptoms related to inattentiveness and hyperactivity-impulsiveness as well as additional questions 19-47 of the Vanderbilt scale assessing other behavioral symptoms (conducted by parent), actigraphy for quantitative measurement of activity, Quotient® ADHD test for objective measurement of micro-motion and shifts in attention state, PERMP-Math test, and CGI-I and CGI-S for assessment of global functioning. […]

[2] = test system: dementia-related cognitive impairment patients; details: cited from earlier work

O=C1CC[C@H](C(=O)N2CCCCC2)N1 [NFC-1, fasoracetam monohydrate]
bursts of medium/high intensity movements (actigraphy) ([1]; 400 mg bid in comparison with placebo, P<0.001): significant reduction
reduction in moderate to vigorous physical activity (MVPA) ([1]; week 1 (placebo) to week 5, genetic Tiers 1, 2 and 3): most prominent in 400 mg bid dose group
safety and tolerability ([2]; Phase I-III clinical trials in dementia-related cognitive impairment): generally safe and well tolerated
effects on psychiatric symptoms ([2]; Phase III data, cerebral infarct patients and adult dementia patients with cerebrovascular diseases): beneficial effects
efficacy in dementia ([2]; Phase III trials): did not show sufficient efficacy
